What all share (assay): ≥ marks a high value that may be exact or a test limit, other limits are often not marked, values filed in µg/mL are converted to µM
Assay [1] deals with Clavibacter michiganensis subsp. michiganensis DSM 46294.
For assay [2], the system named is Pectobacterium carotovorum subsp. carotovorum DSM 30168.
In assay [3] the test system is Pseudomonas corrugata DSM 7228.
The subject of assay [4] is Pseudomonas syringae pv. tomato DC3000.
In assay [5] the test system is Pseudomonas syringae pv. syringae DSM 10604.
Assay [6] concerns Xanthomonas vesicatoria DSM 50861.
Assay [7] concerns Staphylococcus aureus 90857.
In assay [8] the test system is Pseudomonas aeruginosa Ps4.
Assay [9] has as its system Escherichia coli JM109.
Assay [10] has as its system Staphylococcus aureus.
In assay [11] the test system is Staphylococcus aureus ATCC 6538P.
In assay [12] the test system is Aspergillus fumigatus.
Assay [13] concerns Escherichia coli JW0013.

Each structure is given as a SMILES string. Values after ≈ are worked out from the molar mass of the structure shown.

One may read the MIC as the smallest concentration in the dilution series that meets the test's criterion for growth inhibition.

Regarding `CC(C)C[C@H](NC(=O)[C@H](Cc1ccccc1)NC(=O)[C@H](CC(C)C)NC(=O)[C@H](CCCN=C(N)N)NC(=O)[C@H](CC(C)C)NC(=O)[C@H](Cc1ccccc1)NC(=O)[C@H](CC(C)C)NC(=O)[C@H](CCCN=C(N)N)NC(=O)[C@H](Cc1ccccc1)NC(=O)[C@H](CC(C)C)NC(=O)[C@H](CCCN=C(N)N)NC(=O)[C@H](Cc1ccccc1)NC(=O)[C@H](CC(C)C)NC(=O)[C@H](Cc1ccccc1)NC(=O)[C@H](CC(C)C)NC(=O)[C@H](CCCN=C(N)N)NC(=O)[C@H](CCCN=C(N)N)NC(=O)[C@@H](N)CCCCN)C(=O)N[C@@H](CCCCN)C(=O)N[C@@H](CCCCN)C(N)=O` [KRRLFLFRLFRLFLRLFLKK], the MIC in assay [1] was determined as 0.922 µM (≈ 2.5 µg/mL); in assay [2], 3.69 µM (≈ 10 µg/mL); in [3], 3.69 µM (≈ 10 µg/mL); in [4], 1.84 µM (≈ 5 µg/mL); in assay [5], 3.69 µM (≈ 10 µg/mL); in [6], 0.922 µM (≈ 2.5 µg/mL). Also, the MIC in [7] stood at 4 µM (≈ 10.8 µg/mL).
With `CC[C@H](C)[C@H](NC(=O)[C@H](CCCN=C(N)N)NC(=O)[C@H](CCCN=C(N)N)NC(=O)[C@H](CC(C)C)NC(=O)[C@H](Cc1ccccc1)NC(=O)[C@H](CCCN=C(N)N)NC(=O)[C@@H](N)CC(C)C)C(=O)N[C@@H](CC(C)C)C(=O)N[C@@H](CCCN=C(N)N)C(=O)N[C@@H](CCCN=C(N)N)C(=O)N[C@@H](CC(C)C)C(=O)N[C@@H](CC(C)C)C(N)=O` [LRFLRRILRRLL], the MIC came to 0.308 µM (≈ 0.5 µg/mL) in assay [1]; 1.54 µM (≈ 2.5 µg/mL) in [2]; 0.308 µM (≈ 0.5 µg/mL) in assay [3]; 0.615 µM (≈ 0.999 µg/mL) in [4]; 0.308 µM (≈ 0.5 µg/mL) in assay [5]; 0.308 µM (≈ 0.5 µg/mL) in assay [6]. In [7], the MIC was found to be 0.625 µM (≈ 1.02 µg/mL).
For `CC[C@H](C)[C@H](NC(=O)[C@H](CC(N)=O)NC(=O)[C@H](CCCN=C(N)N)NC(=O)[C@H](CCC(N)=O)NC(=O)[C@H](Cc1c[nH]c2ccccc12)NC(=O)[C@@H](N)Cc1ccccc1)C(=O)N[C@@H](CCCCN)C(=O)N[C@H](C(=O)N[C@@H](CCCN=C(N)N)C(N)=O)C(C)C` [FWQRNIKVR], the MIC in assay [8] was at least 201 µM.
In assay [8], `CC[C@H](C)[C@H](NC(=O)[C@H](CC(N)=O)NC(=O)[C@H](CCCN=C(N)N)NC(=O)[C@H](CCC(N)=O)NC(=O)[C@H](Cc1c[nH]c2ccccc12)NC(=O)[C@@H](N)Cc1ccccc1)C(=O)N[C@@H](CCCN=C(N)N)C(=O)N[C@@H](CCCCN)C(=O)N[C@@H](Cc1ccccc1)C(=O)N[C@@H](CCCN=C(N)N)C(N)=O` [FWQRNIRKFR] showed an MIC of at least 172 µM.
As to `CC[C@H](C)[C@H](NC(=O)[C@H](C)NC(=O)[C@H](CC(C)C)NC(=O)[C@H](CS)NC(=O)[C@H](Cc1cnc[nH]1)NC(=O)[C@H](C)NC(=O)[C@H](C)NC(=O)[C@H](CS)NC(=O)[C@@H](N)CC(C)C)C(=O)N[C@@H](CCCN=C(N)N)C(=O)N[C@@H](CCCN=C(N)N)C(=O)N[C@@H](CCCN=C(N)N)C(N)=O` [LCAAHCLAIRRR], the MIC in [9] is 17.4 µM; in [10] it was over 46.3 µM; in [11] it was 5.42 µM.
Turning to `NC(=O)C[C@H](NC(=O)[C@H](CCCN=C(N)N)NC(=O)[C@H](CCCN=C(N)N)NC(=O)[C@H](Cc1c[nH]c2ccccc12)NC(=O)[C@@H](N)Cc1ccccc1)C(=O)N[C@@H](Cc1ccccc1)C(=O)N[C@@H](Cc1c[nH]c2ccccc12)C(=O)N[C@@H](CCCN=C(N)N)C(=O)N[C@@H](CCCN=C(N)N)C(N)=O` [FWRRNFWRR], the MIC in assay [8] is at least 176 µM.
Turning to `CC[C@H](C)[C@H](NC(=O)[C@H](C)NC(=O)[C@H](CC(C)C)NC(=O)[C@H](CCCN=C(N)N)NC(=O)[C@H](CC(C)C)NC(=O)[C@@H](NC(=O)[C@H](CCCN=C(N)N)NC(=O)[C@H](CC(C)C)NC(=O)[C@@H](NC(=O)[C@H](CC(C)C)NC(=O)[C@H](CCCN=C(N)N)NC(=O)[C@H](CCCN=C(N)N)NC(=O)[C@@H](N)CCCCN)[C@@H](C)CC)[C@@H](C)CC)C(=O)N[C@@H](CCCN=C(N)N)C(=O)N[C@@H](C)C(=O)N[C@@H](CC(C)C)C(=O)N[C@H](C(=O)N[C@@H](CCCCN)C(=O)N[C@@H](CCCCN)C(=O)N[C@@H](CCCN=C(N)N)C(N)=O)C(C)C` [KRRLILRILRLAIRALVKKR], the MIC in assay [1] is 0.101 µM (≈ 0.25 µg/mL); in assay [2], 4.02 µM (≈ 10 µg/mL); in assay [3], 2.01 µM (≈ 5 µg/mL); in assay [4], 4.02 µM (≈ 10 µg/mL); in assay [5], 2.01 µM (≈ 5 µg/mL); in assay [6], 0.101 µM (≈ 0.25 µg/mL). In [7], this compound yielded an MIC of 4 µM (≈ 9.94 µg/mL).
For `CC(C)[C@H](NC(=O)[C@H](CCCCN)NC(=O)[C@H](CCCN=C(N)N)NC(=O)[C@H](Cc1ccccc1)NC(=O)[C@H](CC(N)=O)NC(=O)[C@H](CCCN=C(N)N)NC(=O)[C@H](CCC(N)=O)NC(=O)[C@H](Cc1c[nH]c2ccccc12)NC(=O)[C@@H](N)Cc1ccccc1)C(=O)N[C@@H](CCCN=C(N)N)C(N)=O` [FWQRNFRKVR], the MIC in [8] is at least 174 µM.
In [12], `CC(C)[C@H](NC(=O)[C@@H](N)CCCCN)C(=O)N[C@@H](C)C(=O)N[C@@H](CCCCN)C(=O)N[C@@H](CCC(N)=O)C(=O)N[C@@H](CCC(=O)O)C(=O)N[C@@H](CCCCN)C(=O)N[C@@H](CCCCN)C(=O)N[C@@H](CCCCN)C(=O)N[C@@H](CCCCN)C(=O)N[C@@H](CCCCN)C(=O)N[C@H](C(=O)NCC(=O)N[C@@H](CCCN=C(N)N)C(=O)N[C@@H](C)C(=O)N[C@@H](CCCCN)C(=O)N[C@@H](CCCN=C(N)N)C(=O)N[C@@H](CCCN=C(N)N)C(=O)O)[C@@H](C)O` [KVAKQEKKKKKTGRAKRR] registered an MIC of 18 µM (≈ 39 µg/mL).
Take `CC[C@H](C)[C@H](NC(=O)[C@H](CCCN=C(N)N)NC(=O)[C@H](CCCN=C(N)N)NC(=O)[C@@H]1CCCN1C(=O)[C@@H]1CCCN1C(=O)[C@H](CCCN=C(N)N)NC(=O)[C@@H](NC(=O)[C@H](CCCN=C(N)N)NC(=O)[C@@H]1CCCN1C(=O)[C@H](CC(C)C)NC(=O)[C@H](Cc1ccc(O)cc1)NC(=O)[C@@H]1CCCN1C(=O)[C@@H]1CCCN1C(=O)[C@H](CCCCN)NC(=O)[C@H](CC(=O)O)NC(=O)[C@@H](N)C(C)C)[C@@H](C)CC)C(=O)N[C@@H](Cc1ccc(O)cc1)C(=O)N[C@@H](CC(N)=O)C(=O)N[C@@H](CCCN=C(N)N)C(N)=O` [VDKPPYLPRIRPPRRIYNR]: in assay [13], the MIC was found to be 1.37 µM (≈ 3.3 µg/mL).
Take `NC(=O)[C@H](CCCN=C(N)N)NC(=O)[C@H](Cc1c[nH]c2ccccc12)NC(=O)[C@H](CCCN=C(N)N)NC(=O)[C@H](Cc1c[nH]c2ccccc12)NC(=O)[C@H](CCCN=C(N)N)NC(=O)[C@H](Cc1c[nH]c2ccccc12)NC(=O)[C@@H](N)Cc1ccccc1` [FWRWRWR]: the MIC in assay [8] was at least 52.4 µM.
`CC(C)C[C@H](NC(=O)[C@H](CCCN=C(N)N)NC(=O)[C@H](CCCCN)NC(=O)[C@H](CCCCN)NC(=O)[C@@H](N)CCCN=C(N)N)C(=O)N[C@@H](CCCCN)C(=O)N[C@H](C(=O)N[C@H](C(=O)N[C@@H](CCCCN)C(=O)N[C@@H](CCCN=C(N)N)C(=O)N[C@@H](CC(C)C)C(=O)N[C@H](C(N)=O)C(C)C)C(C)C)C(C)C` [RKKRLKVVKRLV]: the MIC in assay [1] was 6.57 µM (≈ 9.99 µg/mL); in assay [2], 6.57 µM (≈ 9.99 µg/mL); in assay [3], 6.57 µM (≈ 9.99 µg/mL); in assay [4] it was 1.64 µM (≈ 2.5 µg/mL); in [5] it was 3.28 µM (≈ 5 µg/mL); in assay [6], 6.57 µM (≈ 9.99 µg/mL). The compound also registered an MIC in assay [7] of at least 62.5 µM.
In assay [8], `CC[C@H](C)[C@H](NC(=O)[C@H](CC(N)=O)NC(=O)[C@H](CCCN=C(N)N)NC(=O)[C@H](CCC(N)=O)NC(=O)[C@H](Cc1c[nH]c2ccccc12)NC(=O)[C@@H](N)Cc1ccccc1)C(=O)N[C@@H](CCCN=C(N)N)C(=O)N[C@@H](CCCCN)C(=O)N[C@H](C(=O)N[C@@H](CCCCN)C(=O)N[C@@H](CCCCN)C(=O)N[C@@H](CCCCN)C(=O)N[C@@H](CCCCN)C(N)=O)C(C)C` [FWQRNIRKVKKKK] gave an MIC of at least 142 µM.

Source of the values: DBAASP.
